Reference: PubChem BioAssay (NCI)
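These data come from cells grown in 96-well plates and exposed to compound for 48 hours at five concentrations. Abbreviation: GI50, concentration required for 50% inhibition of growth. TGI is the concentration that stops growth completely.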

Assays:
Assay in all cases: inhibition of tumour cell growth, NCI panel, 48 h
RPMI-8226 leukemia = test system: RPMI-8226 leukemia
SK-OV-3 ovarian = test system: SK-OV-3 ovarian
SK-MEL-5 melanoma = test system: SK-MEL-5 melanoma
MCF7 breast = test system: MCF7 breast
BT-549 breast = test system: BT-549 breast
OVCAR-8 ovarian = test system: OVCAR-8 ovarian
IGROV1 ovarian = test system: IGROV1 ovarian
NCI-H23 lung = test system: NCI-H23 lung
HCT-116 colon = test system: HCT-116 colon
HL-60(TB) leukemia = test system: HL-60(TB) leukemia
KM12 colon = test system: KM12 colon
HOP-92 NSCLC = test system: HOP-92 NSCLC
SK-MEL-28 melanoma = test system: SK-MEL-28 melanoma
MALME-3M melanoma = test system: MALME-3M melanoma
CAKI-1 renal = test system: CAKI-1 renal
SN12C renal = test system: SN12C renal
SNB-75 CNS = test system: SNB-75 CNS
TK-10 renal = test system: TK-10 renal
T-47D breast = test system: T-47D breast
A498 renal = test system: A498 renal
SW-620 colon = test system: SW-620 colon
HT29 colon = test system: HT29 colon
K-562 leukemia = test system: K-562 leukemia
COLO 205 colon = test system: COLO 205 colon
786-0 renal = test system: 786-0 renal
UO-31 renal = test system: UO-31 renal
OVCAR-3 ovarian = test system: OVCAR-3 ovarian
UACC-257 melanoma = test system: UACC-257 melanoma
UACC-62 melanoma = test system: UACC-62 melanoma
MDA-MB-468 breast = test system: MDA-MB-468 breast
PC-3 prostate = test system: PC-3 prostate
HCC-2998 colon = test system: HCC-2998 colon
SK-MEL-2 melanoma = test system: SK-MEL-2 melanoma
ACHN renal = test system: ACHN renal
CCRF-CEM leukemia = test system: CCRF-CEM leukemia
HCT-15 colon = test system: HCT-15 colon
MOLT-4 leukemia = test system: MOLT-4 leukemia
MDA-MB-435 = test system: MDA-MB-435
HS 578T breast = test system: HS 578T breast
NCI-H226 lung = test system: NCI-H226 lung
LOX IMVI melanoma = test system: LOX IMVI melanoma
HOP-62 NSCLC = test system: HOP-62 NSCLC
SF-268 CNS = test system: SF-268 CNS
EKVX NSCLC = test system: EKVX NSCLC
MDA-MB-231 breast = test system: MDA-MB-231 breast
SF-539 CNS = test system: SF-539 CNS
SNB-19 CNS = test system: SNB-19 CNS
NCI-H522 lung = test system: NCI-H522 lung
RXF 393 renal = test system: RXF 393 renal
OVCAR-4 ovarian = test system: OVCAR-4 ovarian
DU-145 prostate = test system: DU-145 prostate
OVCAR-5 ovarian = test system: OVCAR-5 ovarian
A549 NSCLC = test system: A549 NSCLC
NCI-H460 lung = test system: NCI-H460 lung
SF-295 CNS = test system: SF-295 CNS
SR leukemia = test system: SR leukemia
U251 CNS = test system: U251 CNS
M14 melanoma = test system: M14 melanoma

With `CN1CCN(Cc2ccc(C(=O)Nc3cccc(Nc4ccc5cc(O)ccc5n4)c3)cc2C(F)(F)F)CC1` the GI50 (RPMI-8226 leukemia) was 2.65 µM, the TGI (RPMI-8226 leukemia) was 7.1 µM and the GI50 (SK-OV-3 ovarian) was 16.5 µM. For the same compound, the TGI (SK-OV-3 ovarian) was 30.5 µM, the GI50 (SK-MEL-5 melanoma) was 2.35 µM and the TGI (SK-MEL-5 melanoma) was 6.4 µM. For the same compound, the GI50 (MCF7 breast) was 2.46 µM, the TGI (MCF7 breast) was 7.31 µM and the GI50 (BT-549 breast) was 12.2 µM. For the same compound, the TGI (BT-549 breast) was 25.4 µM, the GI50 (OVCAR-8 ovarian) was 13.2 µM and the TGI (OVCAR-8 ovarian) was 28.4 µM. For the same compound, the GI50 (IGROV1 ovarian) was 16.6 µM, the TGI (IGROV1 ovarian) was 31.3 µM and the GI50 (NCI-H23 lung) was 13.9 µM. It also gave a TGI (NCI-H23 lung) of 28.5 µM, a GI50 (HCT-116 colon) of 3.93 µM and a TGI (HCT-116 colon) of 15 µM. The GI50 (HL-60(TB) leukemia) was 2.58 µM, the TGI (HL-60(TB) leukemia) was 4.86 µM and the GI50 (KM12 colon) was 3.17 µM. For the same compound, the TGI (KM12 colon) was 10.9 µM, the GI50 (HOP-92 NSCLC) was 3.39 µM and the TGI (HOP-92 NSCLC) was 17 µM. For the same compound, the GI50 (SK-MEL-28 melanoma) was 1.79 µM, the TGI (SK-MEL-28 melanoma) was 3.32 µM and the GI50 (MALME-3M melanoma) was 1.59 µM. The TGI (MALME-3M melanoma) was 3.15 µM, the GI50 (CAKI-1 renal) was 11.9 µM and the TGI (CAKI-1 renal) was 24.3 µM. For the same compound, the GI50 (SN12C renal) was 14.1 µM, the TGI (SN12C renal) was 27.6 µM and the GI50 (SNB-75 CNS) was 0.656 µM. The TGI (SNB-75 CNS) was 15.3 µM, the GI50 (TK-10 renal) was 21.4 µM and the TGI (TK-10 renal) was 35.8 µM. It also gave a GI50 (T-47D breast) of 14.6 µM, a TGI (T-47D breast) of 32.2 µM and a GI50 (A498 renal) of 22.5 µM. For the same compound, the TGI (A498 renal) was 37.1 µM, the GI50 (SW-620 colon) was 2.3 µM and the TGI (SW-620 colon) was 4.57 µM. It also gave a GI50 (HT29 colon) of 3.37 µM, a TGI (HT29 colon) of 12 µM and a GI50 (K-562 leukemia) of 1.88 µM. For the same compound, the TGI (K-562 leukemia) was 4.51 µM, the GI50 (COLO 205 colon) was 10.2 µM and the TGI (COLO 205 colon) was 23.8 µM. For the same compound, the GI50 (786-0 renal) was 3.13 µM, the TGI (786-0 renal) was 10.9 µM and the GI50 (UO-31 renal) was 13.4 µM. For the same compound, the TGI (UO-31 renal) was 27.3 µM, the GI50 (OVCAR-3 ovarian) was 11.2 µM and the TGI (OVCAR-3 ovarian) was 23.4 µM. For the same compound, the GI50 (UACC-257 melanoma) was 7.35 µM, the TGI (UACC-257 melanoma) was 20.6 µM and the GI50 (UACC-62 melanoma) was 15.4 µM. For the same compound, the TGI (UACC-62 melanoma) was 29.2 µM, the GI50 (MDA-MB-468 breast) was 2.23 µM and the TGI (MDA-MB-468 breast) was 6.47 µM. It also gave a GI50 (PC-3 prostate) of 4.68 µM, a TGI (PC-3 prostate) of 20.1 µM and a GI50 (HCC-2998 colon) of 2.39 µM. For the same compound, the TGI (HCC-2998 colon) was 5.22 µM, the GI50 (SK-MEL-2 melanoma) was 13.5 µM and the TGI (SK-MEL-2 melanoma) was 26.4 µM. It also gave a GI50 (ACHN renal) of 7.59 µM, a TGI (ACHN renal) of 23.1 µM and a GI50 (CCRF-CEM leukemia) of 3.48 µM. It also gave a TGI (CCRF-CEM leukemia) of 17.2 µM, a GI50 (HCT-15 colon) of 2.09 µM and a TGI (HCT-15 colon) of 4.49 µM. For the same compound, the GI50 (MOLT-4 leukemia) was 3.52 µM, the TGI (MOLT-4 leukemia) was 9.49 µM and the GI50 (MDA-MB-435) was 8.53 µM. For the same compound, the TGI (MDA-MB-435) was 20.8 µM, the GI50 (HS 578T breast) was 4.17 µM and the TGI (HS 578T breast) was 35.3 µM. It also gave a GI50 (NCI-H226 lung) of 16 µM, a TGI (NCI-H226 lung) of 33.3 µM and a GI50 (LOX IMVI melanoma) of 1.73 µM. The TGI (LOX IMVI melanoma) was 3.19 µM, the GI50 (HOP-62 NSCLC) was 12.1 µM and the TGI (HOP-62 NSCLC) was 24.9 µM. The GI50 (SF-268 CNS) was 10.4 µM, the TGI (SF-268 CNS) was 23.8 µM and the GI50 (EKVX NSCLC) was 14.2 µM. The TGI (EKVX NSCLC) was 28.3 µM, the GI50 (MDA-MB-231 breast) was 2.54 µM and the TGI (MDA-MB-231 breast) was 7.9 µM. For the same compound, the GI50 (SF-539 CNS) was 1.98 µM, the TGI (SF-539 CNS) was 12.2 µM and the GI50 (SNB-19 CNS) was 13.7 µM. The TGI (SNB-19 CNS) was 27.5 µM, the GI50 (NCI-H522 lung) was 4.82 µM and the TGI (NCI-H522 lung) was 17.5 µM. For the same compound, the GI50 (RXF 393 renal) was 3.55 µM, the TGI (RXF 393 renal) was 15.7 µM and the GI50 (OVCAR-4 ovarian) was 11.2 µM. It also gave a TGI (OVCAR-4 ovarian) of 23.8 µM, a GI50 (DU-145 prostate) of 10.5 µM and a TGI (DU-145 prostate) of 22.3 µM. For the same compound, the GI50 (OVCAR-5 ovarian) was 14.2 µM, the TGI (OVCAR-5 ovarian) was 27.7 µM and the GI50 (A549 NSCLC) was 8.7 µM. The TGI (A549 NSCLC) was 22.3 µM, the GI50 (NCI-H460 lung) was 3.84 µM and the TGI (NCI-H460 lung) was 15.2 µM. For the same compound, the GI50 (SF-295 CNS) was 2.33 µM, the TGI (SF-295 CNS) was 5.64 µM and the GI50 (SR leukemia) was 2.68 µM. It also gave a TGI (SR leukemia) of 8.5 µM, a GI50 (U251 CNS) of 2.17 µM and a TGI (U251 CNS) of 6.49 µM. It also gave a GI50 (M14 melanoma) of 9.06 µM and a TGI (M14 melanoma) of 23.5 µM.
